Measured values taken from ChEMBL document CHEMBL5550176, “Destruxin E backbone modification effects on osteoclast Morphology: Synthesis and SAR study of N-Desmethyl and N-Methyl analogs” (2024).
Numbered stars: 1 amine (or outer) side, 2 acyl side, 3 side chain; on linkers, the order of the positions; unused ones are H or OH. Square brackets hold non-standard residues; d marks the D form. Peptide text beside a SMILES is read from it. X1 = O=C([C@@H](C[C@H]1CO1)O[*:1])[*:2]; NMeI = CC[C@H](C)[C@H](NC)C(=O)O; NMeβAla = CN(CCC(=O)[*:2])[*:1]; NMeV = CN[C@H](C(=O)O)C(C)C; NMeA = CN[C@@H](C)C(=O)O; βAla = NCCC(=O)O

tested on: Osteoclast; test: Induction of morphological changes in mouse Osteoclast cells incubated for 24 hrs by TRAP staining based fluorescence microscopy analysis; format: functional

Row | SMILES | Activity
1 | CC[C@H](C)[C@@H]1NC(=O)[C@@H]2CCCN2C(=O)[C@@H](C[C@H]2CO2)OC(=O)CCNC(=O)[C@H](C)NC(=O)[C@H](C(C)C)N(C)C1=O (cyclo(A[βAla][X1]PI[NMeV])) | >50 µM
2 | CC[C@H](C)[C@@H]1NC(=O)[C@@H]2CCCN2C(=O)[C@@H](C[C@H]2CO2)OC(=O)CCNC(=O)[C@H](C)N(C)C(=O)[C@H](C(C)C)NC1=O (cyclo(IV[NMeA][βAla][X1]P)) | 1.6 µM
3 | CC[C@H](C)[C@@H]1NC(=O)[C@@H]2CCCN2C(=O)[C@@H](C[C@H]2CO2)OC(=O)CCN(C)C(=O)[C@H](C)N(C)C(=O)[C@H](C(C)C)N(C)C1=O (cyclo(I[NMeV][NMeA][NMeβAla][X1]P)) | 50 µM
4 | CC[C@H](C)[C@H]1C(=O)N(C)[C@@H](C(C)C)C(=O)N(C)[C@@H](C)C(=O)NCCC(=O)O[C@H](C[C@H]2CO2)C(=O)N2CCC[C@H]2C(=O)N1C (cyclo([NMeA][βAla][X1]P[NMeI][NMeV])) | 12.5 µM
